Assay results taken from PubChem BioAssay (NCI).
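48-hour exposure; five concentrations; linearly interpolated endpoints. Here, GI50 denotes the concentration required for 50% inhibition of growth. Definition used: TGI = concentration required for complete inhibition of growth.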

Legend:
Assay in all cases: growth of human tumour cells (NCI), 48 h
HCC-2998 colon = tested on: HCC-2998 colon
OVCAR-4 ovarian = tested on: OVCAR-4 ovarian
NCI-H23 lung = tested on: NCI-H23 lung
A549 NSCLC = tested on: A549 NSCLC
SF-539 CNS = tested on: SF-539 CNS
SW-620 colon = tested on: SW-620 colon
OVCAR-3 ovarian = tested on: OVCAR-3 ovarian
K-562 leukemia = tested on: K-562 leukemia
IGROV1 ovarian = tested on: IGROV1 ovarian
BT-549 breast = tested on: BT-549 breast

Compound	GI50 (HCC-2998 colon) [µM]	TGI (HCC-2998 colon) [µM]	GI50 (OVCAR-4 ovarian) [µM]	TGI (OVCAR-4 ovarian) [µM]	GI50 (NCI-H23 lung) [µM]	TGI (NCI-H23 lung) [µM]	GI50 (A549 NSCLC) [µM]	TGI (A549 NSCLC) [µM]	GI50 (SF-539 CNS) [µM]	TGI (SF-539 CNS) [µM]	GI50 (SW-620 colon) [µM]	TGI (SW-620 colon) [µM]	GI50 (OVCAR-3 ovarian) [µM]	TGI (OVCAR-3 ovarian) [µM]	GI50 (K-562 leukemia) [µM]	TGI (K-562 leukemia) [µM]	GI50 (IGROV1 ovarian) [µM]	TGI (IGROV1 ovarian) [µM]	GI50 (BT-549 breast) [µM]	TGI (BT-549 breast) [µM]
CC1(C)N=C(N)N=C(N)N1c1ccc(CCc2ccc(Cl)cc2S(=O)(=O)F)c(Cl)c1	11.8	45.9	9.09	84.5	6.51	> 100	1.49	> 100	5.54	26.1	2.66	17.7	4.82	21.4	6.81	> 100	0.942	> 100		
CCCCCCCC(=O)OCC1OC(n2cc(F)c(=O)[nH]c2=O)C(NC(=O)OCc2ccccc2)C(O)C1O (configuration not stated)		52.2		> 100		> 100		> 100		> 100		> 100		> 100		> 100		> 100		
CCC(=O)C(C)C(=O)C(=O)C(=O)OC (configuration not stated)		> 100		> 100		> 100		> 100		> 100		> 45.7		> 100		> 100		> 100		
O=C1[C@H]2ON(c3ccccc3)C(c3ccccc3F)[C@H]2C(=O)N1c1ccc(Cc2ccc(N3C(=O)[C@@H]4ON(c5ccccc5)C(c5ccccc5F)[C@@H]4C3=O)cc2)cc1 (some centres not stated)		> 100		> 100		> 100		> 100		> 100		> 100		> 100		> 100		> 100		
O=C(O)C(C(=O)C(=O)C(C(=O)O)c1ccc(Cl)cc1)c1ccc(Cl)cc1 (configuration not stated)		14.1		6.96		5.6		11.2		4.6		13.5		10.2		10.7		9.03		
CC1=C(C(=O)Nc2ccc([N+](=O)[O-])cc2)C(c2ccccc2O)C(C(=O)Nc2ccc([N+](=O)[O-])cc2)=C(C)N1		27.2		73.8		66.7		90.4		57.8		94.1		51.4		74.2		> 100		
CCCCOC(=O)c1ccc(NC(=O)CCl)cc1	15.6	32.7			2.4	7.47	10.2	22.8	1.7	3.18	1.59	3.38	1.7	3.3	2.98	> 100	1.6	4.34	2.2	7.7
O=[P+](O)c1cc2ccccc2c2ccccc12		> 100		> 100		> 100		> 100		> 100		> 100		> 100		> 100		> 100		
COc1ccc(OC)c(NCC#N)c1		> 100		> 100		> 100		> 100		> 100		> 100		> 100		> 100		> 100		
CN(C(=O)C12C3(C(=O)C(C)(C)C)C4C5(C#N)C3C1(C(=O)C(C)(C)C)C5C42C(=O)C(C)(C)C)C(C)(C)C (configuration not stated)		> 50		> 50		> 50		> 50		> 50		> 50		> 50		> 50		> 50		
CN(C)C(=S)/N=c1\ss/c(=N\C(=S)N(C)C)n1-c1ccc(Cl)cc1						> 100		> 100		> 100		> 100		> 100		> 100		> 100		
O=c1nc(NC(c2ccccc2)(c2ccccc2)c2ccccc2)ccn1CCO		> 100		> 100		> 100		> 100		> 100		> 100		> 100		> 100		> 100		
CCOC(=O)[C@H]1CSC[C@@H](C(=O)OC)N1		> 100		> 100		> 100		> 100				> 100		> 100		> 100		> 100		
COc1ccc2nc(NCN3C(=O)c4ccccc4C3=O)sc2c1				> 100		> 100		> 100		> 100		> 100		> 100		> 100		> 100		> 100
CSc1nc(SC)c2c(C(N)=S)[nH]nc2n1				55.8		66.3		65.6		60		> 100		57.8		78.9		94.4		
COC(=O)c1ccc(NC(=O)c2cc(OC)c(OC)c(OC)c2)cc1		6.67		> 100				> 100		5.5		> 100		7.77		12		> 100		
CCOC(=O)c1cc2c(cn1)[nH]c1cccc(N)c12		> 100		> 100		> 100		> 100		> 100		> 100		> 100		> 100		> 100		
COc1cc(C=O)c(-c2cc3c(cc2C2(C)OCCS2)OCO3)c(OC)c1OC (configuration not stated)		31.2		173		92.9		> 97		17.4		39.6		13.6		> 239		> 169		
CC(=O)C1COC(O)C1C (configuration not stated)						31.7		> 100		45.4		44.2		37		> 100		42.5		> 100
CCOc1ccc2nc(-c3cccc(OCC(=O)NC(C)C)c3)nc(Nc3ccc(-c4cn[nH]c4)cc3)c2c1	1.45	7.91	1.53	3.52	1.29	10.2	0.769	3.54	1.25	2.67	1.35	5.99	1.34	3.12	0.454		0.927	7.4		
CCCCN=C(NC#N)N(Cc1ccccc1)Cc1ccccc1		62.1		> 100		77.4		> 100		48.2		30.4		64.8		88.1		74.4		
O=C1C2CC=CCC2C(=O)C12CCc1ccccc12 (configuration not stated)		> 100		> 100		> 100		> 100				> 100		> 100		> 100		> 100		
